# Tests used:
# phosphatidylinositides = test: [3H]inositol phospholipid (phosphatidylinositide) resynthesis in rat brain slices; assay type: cell-based; conditions: […]; frontal cortex or hippocampal tissues; 5 mM LiCl; 90 min
# 5HT2 receptor = test: α-methylserotonin-stimulated IP accumulation in tissues prelabeled with [3H]inositol in presence of antidepressants; assay type: cell-based, rat; conditions: hippocampus, frontal cortex, striatum; 60 min; 5 mM LiCl
# CDP-diacylglycerol = test: [3H]CDP-diacylglycerol accumulation in rat brain slices; assay type: cell-based; conditions: monoamine receptor agonists; frontal cortex or hippocampal tissues; 5 mM LiCl; 90 min
# [1] = tested on: CDP-diacylglycerol/inositol phosphate; test: CDP-DG/IP ratio calculated from brain slice data; assay type: cell-based, rat; conditions: monoamine receptor agonists; frontal cortex or hippocampal tissues
# Procedure: FIGS. 9A-9C are ratios of antidepressant-induced CDP-diacylglycerol versus inositol phosphates. The data in FIGS. 1A-1C, 2A-2B, 3A-3C, 4A-4B, and 5A-5C were recalculated by dividing the CDP-diacylglycerol effects of each concentration of each antidepressant agent by the corresponding effects of the agent on inositol phosphate accumulation to yield the CDP-diacylglycerol/inositol phosphate (CDP-DG/IP) ratios shown. […] Data for each agent were analyzed by One-Way ANOVA followed by posthoc Dunnett tests. ^#p<0.05; *p<0.01; compared to the respective control (zero drug concentration).
# As used herein, the term “CDP-DG/IP ratio” refers to the relative value of an index which is the quotient of a level of cellular CDP-diacylglycerol divided by a level of inositol phosphate in a tissue or cell or tissue cultures thereof, e.g., a mammalian brain tissue or blood platelets, a human brain tissue or blood platelets, or other cells or tissues having the ability to metabolize CDP-diacylglycerol and phosphoinositides. Levels may be determined, but are not limited to, using molar concentration or a radiolabel.
# To determine if antidepressant agents exert differential effects on CDP-DG production compared to PI hydrolysis, the ratios of CDP-DG production relative to the IPs (CDP-DG/IP ratio) in corresponding treatment conditions were examined.
# Corresponding CDP-DG ratios were calculated as for the antidepressant agents. […] The ratios of CDP-DG production relative to IP accumulation are shown on the far right of the graphs in FIGS. 10A-10C and FIGS. 11A-11D.
# inositol phosphates = test: [3H]inositol phosphate accumulation in rat brain slices; assay type: cell-based; conditions: monoamine receptor agonists; frontal cortex or hippocampal tissues; 5 mM LiCl; 90 min
smiles,measurement,setting,value
CC(N)Cc1c[nH]c2ccc(O)cc12 (stereo not drawn) [α-methylserotonin],effect on PI synthesis,phosphatidylinositides,significant but relatively small effects
same,IP accumulation induced by agonist by itself,5HT2 receptor,significant increases
same,effect on CDP-DG production,CDP-diacylglycerol,significantly increased
same,CDP-DG/IP ratio,[1],no concentration-related increase
same,effect on IP accumulation,inositol phosphates,significantly increased

# Reference: patent US8278296B2, “Manipulation of brain CDP-diacylglycerol and uses thereof” (priority 2006, dated 2012)
